Tested on: Coxsackievirus B3 (CVB3)
Assay: Anti Coxsackie B3 activity assay
Type: cell-based, Coxsackie viruse B3 (Nancy strain)
Conditions: CVB3 in Vero cells

Cc1cc(CCCOc2c(C)cc(-c3noc(C(F)(F)F)n3)cc2C)on1 [Pleconaril]
SI (TC50/IC50): 14045.1

NC(=O)c1ncn([C@@H]2O[C@H](CO)[C@@H](O)[C@H]2O)n1 [Ribavirin]
SI (TC50/IC50): 5.2

Reference: article PMC8153216 (Chemical Science, 2021)
